Results taken from article PMC11678245, “The Molecular Basis of the Intrinsic and Acquired Resistance to Azole Antifungals in Aspergillus fumigatus” (Journal of Fungi, 2024).
Several values for one entry are separate records, joined by “and”; a condition that tells them apart may be missing. Identical values can stand only once. Like-named read-outs stand apart in the source and are kept apart here.

What was measured:
[1] = test system: S. cerevisiae strain ADΔΔ (native ScCYP51); experiment: MIC80 susceptibility, host strain ADΔΔ; type: cell-based; conditions: Saccharomyces cerevisiae, Table 2, SD pH 6.8, 48 h, 30 °C
Description: (§1) The susceptibilities of S. cerevisiae strains to antifungal drugs were determined as minimum growth inhibitory concentration (MIC) values in 200 μL SD pH 6.8 [24]. Serial 2-fold dilutions of 100 μL of azole or control drugs in SD pH 6.8 were prepared in a 96-well microtiter plate. A portion of a 2 mL SD pH 6.8 overnight culture of the test strain was inoculated into 3 mL fresh SD pH 6.8 and incubated for 4 to 6 h at 30 °C to generate logarithmic-phase cells. These cells were then diluted with fresh SD pH 6.8 to OD600nm = 0.01 (3 × 10^4 CFU), and 100 μL of this cell suspension was added to microtiter plate wells. Cell growth after 48 h incubation at 30 °C with shaking at 200 rpm was determined at 600 nm using a BioTek™ Synergy™ 2 multi-Mode microplate reader controlled using Gen5™ Data Analysis Software version 3.16.10 (BioTek Instruments, Winooski, VT, USA). MIC80 values (80% growth inhibition in the presence of the test drug compared with the untreated control) for each yeast construct were determined as technical triplicates repeated three times for three separate clones.

[2] = test system: S. cerevisiae strain ADLS overexpressing ScCYP51-6×His; experiment: MIC80 susceptibility, strain ADLS; type: cell-based, Saccharomyces cerevisiae; conditions: Saccharomyces cerevisiae; Table 2; strain ADLS; SD pH 6.8, 48 h, 30 °C; ± SD; read-out: MIC80
Description: as §1

[3] = test system: S. cerevisiae strain A (AfCyp51A-6×His, native ScCyp51 retained); experiment: MIC80 susceptibility, strain A; type: cell-based; conditions: Saccharomyces cerevisiae, Table 2, SD pH 6.8, 48 h, 30 °C
Description: as §1

[4] = test system: S. cerevisiae strain AR (AfCyp51A-6×His, AfCprA2-6×His); experiment: MIC80 susceptibility, strain AR; type: cell-based, Saccharomyces cerevisiae
Description: as §1

[5] = test system: S. cerevisiae strain ARE (AfCyp51A-6×His, AfCprA2, AfErg6-FLAG); experiment: MIC80 susceptibility, strain ARE; type: cell-based, Saccharomyces cerevisiae; conditions: Saccharomyces cerevisiae, strain ARE, ± SD, read-out: MIC80
Description: as §1

[6] = test system: S. cerevisiae strain ARE Y121F (AfCyp51A-6×His Y121F, AfCprA2, AfErg6-FLAG); experiment: MIC80 susceptibility, strain Y121F; type: cell-based, Saccharomyces cerevisiae; conditions: Saccharomyces cerevisiae, ± SD, read-out: MIC80
Description: as §1

[7] = test system: S. cerevisiae strain ARE T289A (AfCyp51A-6×His T289A, AfCprA2, AfErg6-FLAG); experiment: MIC80 susceptibility, strain T289A; type: cell-based, Saccharomyces cerevisiae; conditions: for MIC80: Saccharomyces cerevisiae, ± SD, read-out: MIC80
Description: as §1

[8] = test system: S. cerevisiae strain ARE Y121F T289A (AfCyp51A-6×His Y121F T289A, AfCprA2, AfErg6-FLAG); experiment: MIC80 susceptibility, strain Y121F T289A; type: cell-based, Saccharomyces cerevisiae; conditions: Saccharomyces cerevisiae, ± SD, read-out: MIC80
Description: as §1

[9] = test system: S. cerevisiae strain ARE I301T (AfCyp51A-6×His I301T, AfCprA2, AfErg6-FLAG); experiment: MIC80 susceptibility, strain I301T; type: cell-based, Saccharomyces cerevisiae; conditions: Saccharomyces cerevisiae, ± SD, read-out: MIC80
Description: as §1

[10] = test system: S. cerevisiae strain B (AfCyp51B-6×His, native ScCyp51 retained); experiment: MIC80 susceptibility, strain B; type: cell-based; conditions: Saccharomyces cerevisiae, Table 2, SD pH 6.8, 48 h, 30 °C
Description: as §1

[11] = test system: S. cerevisiae strain BR (AfCyp51B-6×His, AfCprA2-6×His); experiment: MIC80 susceptibility, strain BR; type: cell-based; conditions: Saccharomyces cerevisiae; Table 2; strain BR; SD pH 6.8, 48 h, 30 °C; ± SD; read-out: MIC80
Description: as §1

[12] = test system: S. cerevisiae strain BRE (AfCyp51B-6×His, AfCprA2, AfErg6-FLAG); experiment: MIC80 susceptibility, strain BRE; type: cell-based, Saccharomyces cerevisiae; conditions: Saccharomyces cerevisiae, strain BRE, ± SD, read-out: MIC80
Description: as §1

AfCYP51A-6×His = AfCYP51A-6×His (Aspergillus fumigatus, UniProt Q4WNT5); experiment: Type II binding of azole drugs (difference spectra); conditions: AfCYP51A
AfCYP51A-6×His, sequence (Q4WNT5 whole entry): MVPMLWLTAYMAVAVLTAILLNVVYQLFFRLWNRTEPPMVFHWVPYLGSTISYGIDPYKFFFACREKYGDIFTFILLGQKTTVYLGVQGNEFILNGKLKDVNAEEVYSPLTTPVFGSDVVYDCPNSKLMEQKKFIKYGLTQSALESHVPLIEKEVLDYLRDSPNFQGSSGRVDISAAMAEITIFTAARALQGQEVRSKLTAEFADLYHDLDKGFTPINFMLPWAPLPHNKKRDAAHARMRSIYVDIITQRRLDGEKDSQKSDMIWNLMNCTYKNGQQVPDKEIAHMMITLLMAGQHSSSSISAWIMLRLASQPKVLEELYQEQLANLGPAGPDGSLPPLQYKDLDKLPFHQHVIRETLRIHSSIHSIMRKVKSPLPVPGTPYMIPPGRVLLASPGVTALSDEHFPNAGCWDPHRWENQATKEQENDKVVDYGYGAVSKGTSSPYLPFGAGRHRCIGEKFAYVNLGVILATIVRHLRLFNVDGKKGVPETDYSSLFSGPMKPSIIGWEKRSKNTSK
Description: (§2) The concentration of AfCYP51A and AfCYP51B, purified using Ni-NTA affinity chromatography and used for the spectrophotometric type I and type II binding assays, was calculated using an extinction co-efficient of λ417nm = 117 mM^−1 cm^−1 applied to the absolute absorption spectrum of the preparations. In addition, the amount of “active” cytochrome P450 enzyme was determined using the carbon monoxide (CO) binding spectra of these preparations.
(§3) Type II binding difference spectra were obtained using 1 μM of affinity-purified CYP51 enzymes. VCZ, PCZ, VT-1161, DCZ, and MCF working solutions were prepared in DMSO, while FLC was prepared in Milli-Q water. Azole drugs were added to the sample cuvette, and corresponding amounts of DMSO or Milli-Q water were added to the reference cuvette. Drug binding curves were plotted using the difference spectrum peak and trough detected in the range of 410–425 nm. Dissociation constants (Kd) were determined by nonlinear regression (Levenberg–Marquardt algorithm) of the difference in absorbance between the peak and trough against the azole concentration using a rearrangement of the Morrison equation or the Hill equation [7]. GraphPad Prism 9.2.0 software was used to identify the best fit for the data.

AfCYP51B-6×His = biological target: T1, AfCYP51B-6×His (Aspergillus fumigatus, UniProt E9QY26); experiment: as above; conditions: for ΔAmax (type II binding) / Kd: Hill equation; for Hill Number / Kd: type II binding
T1 sequence (E9QY26 1-524): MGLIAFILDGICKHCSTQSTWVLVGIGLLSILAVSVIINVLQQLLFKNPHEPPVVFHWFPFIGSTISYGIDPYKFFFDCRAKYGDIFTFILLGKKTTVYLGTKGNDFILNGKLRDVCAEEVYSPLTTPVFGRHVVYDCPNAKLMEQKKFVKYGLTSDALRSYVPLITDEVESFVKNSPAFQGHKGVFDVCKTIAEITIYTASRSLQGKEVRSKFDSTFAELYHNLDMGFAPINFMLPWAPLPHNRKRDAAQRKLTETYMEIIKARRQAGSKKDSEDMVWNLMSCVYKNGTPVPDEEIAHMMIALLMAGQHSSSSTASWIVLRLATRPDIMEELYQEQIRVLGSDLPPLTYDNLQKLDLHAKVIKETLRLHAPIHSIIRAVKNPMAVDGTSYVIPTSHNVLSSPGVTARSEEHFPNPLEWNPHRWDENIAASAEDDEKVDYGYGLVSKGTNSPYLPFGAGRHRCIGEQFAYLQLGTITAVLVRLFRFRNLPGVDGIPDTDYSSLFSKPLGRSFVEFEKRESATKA
Description: as §2, §3

[13] = Table 2, strain Y121F, SD pH 6.8, 48 h, 30 °C
[14] = 48 h, pH 6.8, Table 2, strain T289A, SD pH 6.8, 48 h, 30 °C
[15] = Table 2, strain Y121F T289A, SD pH 6.8, 48 h, 30 °C
[16] = 48 h, pH 6.8, Table 2, strain I301T, SD pH 6.8, 48 h, 30 °C
[17] = Table 2, SD pH 6.8, 48 h, 30 °C

Work on `CC[C@@H]([C@H](C)O)n1ncn(-c2ccc(N3CCN(c4ccc(OC[C@@H]5CO[C@@](Cn6cncn6)(c6ccc(F)cc6F)C5)cc4)CC3)cc2)c1=O` [PCZ, posaconazole] yielded an MIC80 [1] of 0.1 ± 0.01 µM, an MIC80 [2] of 0.29 ± 0.04 µM and an MIC80 [3] of 0.21 ± 0.01 µM. The MIC80 ([4]; Saccharomyces cerevisiae, 48 h, pH 6.8) was 0.19 ± 0.01 µM, the MIC80 ([4]; Table 2, strain AR, SD pH 6.8, 48 h, 30 °C, ± SD) was 0.19 ± 0.02 µM and the MIC80 ([5]; Table 3) was 0.05 ± 0.017 µM. The MIC80 [6, 13] was 0.06 ± 0.01 µM, the MIC80 ([6]; Table 3, strain ARE Y121F) was 0.025 ± 0.003 µM and the “increase in susceptibility of strain T289A compared to strains ARE and ADΔΔ” value [7] was 40%. For the same compound, the MIC80 [7, 14] was 0.06 µM, the MIC80 ([7]; Table 3, strain ARE T289A) was 0.043 ± 0.019 µM and the MIC80 [8, 15] was 0.11 ± 0.01 µM. The MIC80 ([8]; Table 3, strain ARE Y121F T289A) was 0.101 ± 0.017 µM, the MIC80 [9, 16] was 0.09 ± 0.02 µM and the MIC80 ([9]; Table 3, strain ARE I301T) was 0.055 ± 0.001 µM. It also gave an MIC80 [10] of 0.25 ± 0.03 µM, an MIC80 [11] of 0.17 ± 0.02 µM and an MIC80 [12, 17] of 0.1 ± 0.01 µM. For the same compound, the MIC80 ([12]; Table 3) was 0.06 ± 0.037 µM, the “λpeak (type II difference spectrum)” value (AfCYP51A-6×His; 1 μM enzyme) was 423 nm and the “λtrough (type II difference spectrum)” value (AfCYP51A-6×His; 1 μM enzyme) was 395 nm. The “ΔAmax (type II binding)” value (AfCYP51A-6×His; 1 μM enzyme, Hill equation) was 0.07, the “Hill Number” value (AfCYP51A-6×His; type II binding) was 1.35 and the Kd (AfCYP51A-6×His; type II binding, 1 μM enzyme, Hill equation) was 1700 nM and 1720 nM. For the same compound, the “λtrough (type II difference spectrum)” value (AfCYP51B-6×His; 1 μM enzyme) was 388 nm, the “ΔAmax (type II binding)” value (AfCYP51B-6×His; 1 μM enzyme) was 0.10 and the “Hill Number” value (AfCYP51B-6×His) was 1.41. The Kd (AfCYP51B-6×His; 1 μM enzyme) was 2100 nM and 2150 nM.

Compound `O[C@@](Cn1cnnn1)(c1ccc(F)cc1F)C(F)(F)c1ccc(-c2ccc(OCC(F)(F)F)cc2)cn1` [VT-1161, oteseconazole] has an MIC80 [1] of 0.01 µM, an MIC80 [3] of 0.03 µM and an MIC80 [5, 17] of 0.43 ± 0.05 µM. For the same compound, the MIC80 [6, 13] was 0.53 ± 0.02 µM, the “greater susceptibility (MIC80) of strain T289A compared with strain ARE” value [7] was 21 fold and the MIC80 [7, 14] was 0.02 µM. The MIC80 [8, 15] was 1.07 ± 0.05 µM, the MIC80 [9, 16] was 0.14 ± 0.04 µM and the MIC80 [10] was 0.05 ± 0.01 µM. For the same compound, the MIC80 [12, 17] was 0.06 ± 0.01 µM, the “λpeak (type II difference spectrum)” value (AfCYP51B-6×His; 1 μM enzyme) was 423 nm and the “λtrough (type II difference spectrum)” value (AfCYP51B-6×His; 1 μM enzyme) was 391 nm. The “ΔAmax (type II binding)” value (AfCYP51B-6×His; 1 μM enzyme) was 0.11, the “Hill Number” value (AfCYP51B-6×His) was 0.87 and the Kd (AfCYP51B-6×His; 1 μM enzyme) was 3230 ± 2500 nM.
